The values that follow come from ChEMBL document CHEMBL2321758, “Discovery of 4-{4-[(3R)-3-Methylmorpholin-4-yl]-6-[1-(methylsulfonyl)cyclopropyl]pyrimidin-2-yl}-1H-indole (AZ20): a potent and selective inhibitor of ATR protein kinase with monotherapy in vivo antitumor activity” (J Med Chem, 2013).

Series [1] has as its target T1, Serine/threonine-protein kinase ATR (Homo sapiens, UniProt Q13535).
The target of series [2] is T1, Serine/threonine-protein kinase ATR. Type of series: cell-based, HT-29.
The nature of series [3]: AUC in Han-Wistar rat at 4 umol/kg, po. Type of series: ADME, organism-based. The note with it: plasma.
The target of series [4] is T2, Serine/threonine-protein kinase mTOR (Homo sapiens, UniProt P42345). Put plainly: Inhibition of mTOR-mediated AKT phosphorylation at serine 473 in human MDA-MB-468 cells. Format: cell-based.
Series [5] deals with T3, Phosphatidylinositol 4,5-bisphosphate 3-kinase catalytic subunit alpha isoform (Homo sapiens, UniProt P42336). Put plainly: Inhibition of PI3Kalpha (unknown origin).
Series [6] is described as follows: Solubility of the compound in phosphate buffer after 24 hrs at pH 7.4 by LC-UV-MS analysis. Format: physicochemical.
For series [7], the target named is T2, Serine/threonine-protein kinase mTOR. Kind of series: Inhibition of recombinant mTOR (unknown origin).
Series [8] is described as follows: Apparent permeability from apical to basolateral side in human Caco2 cells at 10 uM at pH 6.5. Type of series: ADME, cell-based. Particulars: Caco-2, pH 6.5.
Series [9] is described as follows: Fraction unbound in rat plasma. Format: ADME, cell-free.
The nature of a further series: physchem. The note with it: octanol/buffer, pH 7.4.
A further series can be described thus: in vitro. Particulars: rat, hepatocytes.
Series [10] deals with Voltage-gated inwardly rectifying potassium channel KCNH2 (Homo sapiens, UniProt Q12809).
The nature of series [11]: Plasma clearance in rat. Type of series: ADME, organism-based.
Series [12] is described as follows: Bioavailability in rat. Format: ADME, organism-based. Particulars: in vivo.
The nature of series [13]: Volume of distribution in rat. Type of series: ADME, organism-based. Particulars: in vivo.
Series [14] addresses T3, Phosphatidylinositol 4,5-bisphosphate 3-kinase catalytic subunit alpha isoform. Kind of series: Inhibition of PI3Kalpha (unknown origin) assessed as residual activity at 1 uM.
A short description of series [15]: Oral bioavailability in Han-Wistar rat at 4 umol/kg. Type of series: ADME, organism-based. The note with it: in vivo.
For series [16], the system named is LoVo. Kind of series: Antitumor activity against human LoVo cells xenografted in Swiss nu/nu mouse assessed as tumor growth inhibition at 25 mg/kg, po bid for 13 days relative to control. Details: dose 25 mg/kg. Type of series: functional, organism-based.
In series [17] the test system is LoVo. Kind of series: Antitumor activity against human LoVo cells xenografted in Swiss nu/nu mouse assessed as tumor growth inhibition at 50 mg/kg, po qd for 13 days relative to control. Format: functional, organism-based. Details: dose 50 mg/kg.
Series [18] deals with T2, Serine/threonine-protein kinase mTOR. Put plainly: Inhibition of recombinant mTOR (unknown origin) assessed as residual activity at 1 uM.
Series [19] is described as follows: Aqueous solubility of the compound at pH 7.4. Format: physicochemical. The note with it: buffer.
Series [20] addresses DNA-dependent protein kinase catalytic subunit (Homo sapiens, UniProt P78527). Kind of series: Inhibition of DNA-PK (unknown origin).
Series [21] can be described thus: Dissociation constant, pKa of the compound. Format: physicochemical.

Values after ≈ are worked out from the molar mass of the structure shown. Active and inactive are the calls of the source. No cut-off for these calls is given here. Where only a bound is given, the exact number is not on record here.

T1 sequence (Q13535 whole entry): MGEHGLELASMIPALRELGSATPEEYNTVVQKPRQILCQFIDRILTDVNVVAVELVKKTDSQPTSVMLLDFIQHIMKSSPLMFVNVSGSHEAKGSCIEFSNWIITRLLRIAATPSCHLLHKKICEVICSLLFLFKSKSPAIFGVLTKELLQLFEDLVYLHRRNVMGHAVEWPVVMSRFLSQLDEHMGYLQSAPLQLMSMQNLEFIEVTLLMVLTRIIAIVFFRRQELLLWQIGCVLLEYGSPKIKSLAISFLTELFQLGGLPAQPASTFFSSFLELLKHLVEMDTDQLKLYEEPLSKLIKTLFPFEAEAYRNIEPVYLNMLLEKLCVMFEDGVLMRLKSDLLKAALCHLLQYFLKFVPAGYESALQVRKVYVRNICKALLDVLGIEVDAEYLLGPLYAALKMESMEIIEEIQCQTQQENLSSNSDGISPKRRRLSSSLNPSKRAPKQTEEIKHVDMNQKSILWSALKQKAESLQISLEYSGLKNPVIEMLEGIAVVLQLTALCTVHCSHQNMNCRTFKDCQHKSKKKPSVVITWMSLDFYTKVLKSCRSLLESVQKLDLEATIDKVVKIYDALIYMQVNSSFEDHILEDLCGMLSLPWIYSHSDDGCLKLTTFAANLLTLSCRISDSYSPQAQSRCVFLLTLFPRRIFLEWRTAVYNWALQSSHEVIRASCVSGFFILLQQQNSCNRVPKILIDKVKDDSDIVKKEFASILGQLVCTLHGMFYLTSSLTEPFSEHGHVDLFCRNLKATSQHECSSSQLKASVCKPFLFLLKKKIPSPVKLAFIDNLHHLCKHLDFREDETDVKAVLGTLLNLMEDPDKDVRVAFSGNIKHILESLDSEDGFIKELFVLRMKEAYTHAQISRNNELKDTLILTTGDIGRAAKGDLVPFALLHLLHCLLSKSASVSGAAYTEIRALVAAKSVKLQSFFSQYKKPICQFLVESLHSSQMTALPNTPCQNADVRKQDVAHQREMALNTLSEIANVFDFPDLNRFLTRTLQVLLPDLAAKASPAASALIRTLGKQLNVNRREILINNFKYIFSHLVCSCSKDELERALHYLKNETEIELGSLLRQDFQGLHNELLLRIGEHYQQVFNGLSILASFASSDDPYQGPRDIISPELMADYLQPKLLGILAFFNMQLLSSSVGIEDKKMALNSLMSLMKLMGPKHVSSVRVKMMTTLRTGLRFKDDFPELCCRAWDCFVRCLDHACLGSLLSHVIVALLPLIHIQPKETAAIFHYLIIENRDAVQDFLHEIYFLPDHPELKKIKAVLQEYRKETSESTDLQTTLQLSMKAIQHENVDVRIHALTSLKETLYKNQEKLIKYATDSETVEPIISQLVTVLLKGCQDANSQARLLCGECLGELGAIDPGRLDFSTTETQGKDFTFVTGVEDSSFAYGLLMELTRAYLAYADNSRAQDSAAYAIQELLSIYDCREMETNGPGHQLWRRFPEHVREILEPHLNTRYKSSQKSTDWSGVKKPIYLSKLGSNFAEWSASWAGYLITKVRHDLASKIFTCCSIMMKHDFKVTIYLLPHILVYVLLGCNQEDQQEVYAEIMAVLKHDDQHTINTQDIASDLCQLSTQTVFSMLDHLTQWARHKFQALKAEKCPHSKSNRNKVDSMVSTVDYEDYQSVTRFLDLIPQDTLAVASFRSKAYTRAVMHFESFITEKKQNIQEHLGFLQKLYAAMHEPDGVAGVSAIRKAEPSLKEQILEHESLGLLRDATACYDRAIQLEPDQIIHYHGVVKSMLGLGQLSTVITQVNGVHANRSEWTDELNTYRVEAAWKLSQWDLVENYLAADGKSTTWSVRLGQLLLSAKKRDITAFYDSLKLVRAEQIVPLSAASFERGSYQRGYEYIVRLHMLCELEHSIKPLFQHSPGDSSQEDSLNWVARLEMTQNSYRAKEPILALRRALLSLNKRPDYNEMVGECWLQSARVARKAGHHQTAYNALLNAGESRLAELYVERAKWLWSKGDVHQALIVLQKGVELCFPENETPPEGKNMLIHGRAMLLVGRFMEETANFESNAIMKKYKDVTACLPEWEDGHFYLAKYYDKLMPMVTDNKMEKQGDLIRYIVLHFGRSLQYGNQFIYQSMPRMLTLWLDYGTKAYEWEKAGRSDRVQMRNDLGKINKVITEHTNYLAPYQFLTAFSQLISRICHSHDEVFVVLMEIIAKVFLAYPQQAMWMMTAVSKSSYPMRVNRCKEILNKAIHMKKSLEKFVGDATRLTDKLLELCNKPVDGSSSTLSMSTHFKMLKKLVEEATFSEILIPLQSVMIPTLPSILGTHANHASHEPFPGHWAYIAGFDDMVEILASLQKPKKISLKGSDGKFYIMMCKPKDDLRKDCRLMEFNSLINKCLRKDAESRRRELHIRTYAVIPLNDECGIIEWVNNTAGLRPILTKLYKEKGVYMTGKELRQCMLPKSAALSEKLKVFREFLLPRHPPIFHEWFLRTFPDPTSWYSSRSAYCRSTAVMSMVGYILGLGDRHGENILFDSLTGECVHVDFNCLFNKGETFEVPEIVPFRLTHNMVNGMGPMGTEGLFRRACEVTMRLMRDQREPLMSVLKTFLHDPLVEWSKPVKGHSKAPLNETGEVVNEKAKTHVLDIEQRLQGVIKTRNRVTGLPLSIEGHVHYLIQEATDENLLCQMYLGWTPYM
T3 sequence (P42336 whole entry, canonical isoform): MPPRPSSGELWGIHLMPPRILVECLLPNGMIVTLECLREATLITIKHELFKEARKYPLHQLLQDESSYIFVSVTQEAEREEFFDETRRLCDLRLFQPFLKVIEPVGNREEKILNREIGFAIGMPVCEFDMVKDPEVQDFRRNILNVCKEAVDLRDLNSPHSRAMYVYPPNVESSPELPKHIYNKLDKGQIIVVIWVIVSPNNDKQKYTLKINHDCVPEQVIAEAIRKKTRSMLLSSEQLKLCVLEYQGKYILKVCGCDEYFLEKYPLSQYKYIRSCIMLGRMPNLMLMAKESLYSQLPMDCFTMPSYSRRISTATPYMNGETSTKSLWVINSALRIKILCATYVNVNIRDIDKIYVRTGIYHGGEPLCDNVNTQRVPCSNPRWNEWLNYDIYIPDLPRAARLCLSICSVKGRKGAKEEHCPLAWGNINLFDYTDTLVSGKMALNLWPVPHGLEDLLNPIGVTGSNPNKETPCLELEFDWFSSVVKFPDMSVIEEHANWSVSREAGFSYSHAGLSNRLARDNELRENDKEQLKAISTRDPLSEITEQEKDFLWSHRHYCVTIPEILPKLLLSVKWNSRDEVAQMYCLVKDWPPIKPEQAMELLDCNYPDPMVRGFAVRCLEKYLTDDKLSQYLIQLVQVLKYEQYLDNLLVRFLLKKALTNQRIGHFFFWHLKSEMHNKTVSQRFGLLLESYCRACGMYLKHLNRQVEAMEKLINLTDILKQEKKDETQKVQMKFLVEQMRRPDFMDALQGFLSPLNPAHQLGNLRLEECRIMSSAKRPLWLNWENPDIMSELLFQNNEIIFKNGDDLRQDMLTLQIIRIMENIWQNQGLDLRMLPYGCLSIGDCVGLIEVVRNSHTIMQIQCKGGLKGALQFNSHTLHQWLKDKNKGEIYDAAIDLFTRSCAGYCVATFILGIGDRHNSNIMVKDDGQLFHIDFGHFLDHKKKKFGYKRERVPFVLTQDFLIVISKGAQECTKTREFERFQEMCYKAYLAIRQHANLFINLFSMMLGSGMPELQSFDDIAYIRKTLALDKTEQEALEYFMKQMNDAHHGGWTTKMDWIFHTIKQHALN
Chain of Voltage-gated inwardly rectifying potassium channel KCNH2 (Q12809 whole entry): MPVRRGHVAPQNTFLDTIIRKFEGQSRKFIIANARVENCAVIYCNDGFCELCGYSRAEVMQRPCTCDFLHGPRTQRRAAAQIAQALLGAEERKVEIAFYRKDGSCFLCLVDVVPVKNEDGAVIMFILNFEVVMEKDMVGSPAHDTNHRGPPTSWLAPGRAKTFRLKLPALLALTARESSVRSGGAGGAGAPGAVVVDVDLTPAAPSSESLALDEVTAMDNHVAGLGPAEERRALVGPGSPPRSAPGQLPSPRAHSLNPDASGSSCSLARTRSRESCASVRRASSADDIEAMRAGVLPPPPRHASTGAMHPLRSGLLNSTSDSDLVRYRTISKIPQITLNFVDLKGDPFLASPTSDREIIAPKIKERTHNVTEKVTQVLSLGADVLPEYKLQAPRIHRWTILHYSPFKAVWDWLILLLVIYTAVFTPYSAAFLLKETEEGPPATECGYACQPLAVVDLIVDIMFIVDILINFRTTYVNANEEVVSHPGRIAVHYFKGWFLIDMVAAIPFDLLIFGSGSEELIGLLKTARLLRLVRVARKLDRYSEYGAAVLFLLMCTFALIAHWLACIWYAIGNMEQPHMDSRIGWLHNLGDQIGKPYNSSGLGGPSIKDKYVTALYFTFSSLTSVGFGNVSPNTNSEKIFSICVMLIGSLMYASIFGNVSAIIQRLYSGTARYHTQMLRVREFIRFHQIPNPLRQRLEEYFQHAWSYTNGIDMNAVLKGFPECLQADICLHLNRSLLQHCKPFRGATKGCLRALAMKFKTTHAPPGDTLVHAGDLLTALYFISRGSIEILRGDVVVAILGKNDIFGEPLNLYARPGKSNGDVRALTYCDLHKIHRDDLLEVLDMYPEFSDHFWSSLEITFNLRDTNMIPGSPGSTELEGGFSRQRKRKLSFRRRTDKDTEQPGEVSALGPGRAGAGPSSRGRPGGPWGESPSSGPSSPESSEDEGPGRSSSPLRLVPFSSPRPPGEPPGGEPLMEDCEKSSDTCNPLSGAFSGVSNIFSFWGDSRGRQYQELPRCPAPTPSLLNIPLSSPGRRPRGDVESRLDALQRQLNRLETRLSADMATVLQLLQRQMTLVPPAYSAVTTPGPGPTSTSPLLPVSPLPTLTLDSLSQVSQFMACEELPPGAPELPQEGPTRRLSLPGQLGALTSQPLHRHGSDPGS

For the compound `CS(=O)(=O)Cc1cc(N2CCOCC2)nc(-c2ccc3[nH]ccc3c2)n1`, the values for the IC50 in [1] and in series [2] were 1.7 µM and over 30 µM, respectively.

Take `CN(C)C(=O)c1cc(-c2nc(N3CCOCC3)cc(C3(S(C)(=O)=O)CC3)n2)c2cc[nH]c2c1`: the IC50 came out at 0.72 µM in [1] and 24 µM in series [2].

As to `CC(C)S(=O)(=O)C1(c2cc(N3CCOCC3)nc(-c3cccc4[nH]ccc34)n2)CC1`, the IC50 turned out to be 0.013 µM in series [1] and 0.77 µM in series [2].

Regarding `CS(=O)(=O)C1(c2cc(N3CCOCC3)nc(-c3cc(Cl)cc4[nH]ccc34)n2)CC1`, the IC50 in series [1] came out at 0.016 µM; in series [2], 0.72 µM.

For the compound `O=S(=O)(c1ccccn1)C1(c2cc(N3CCOCC3)nc(-c3cccc4[nH]ccc34)n2)CC1`, the IC50 in [1] stood at 0.033 µM; in series [2] it was 2 µM.

Regarding `CS(=O)(=O)C1(c2cc(N3CCOCC3)nc(-c3cccc4c3CC(=O)N4)n2)CC1`, the IC50 was 0.12 µM in series [1] and 16 µM in series [2].

For `CS(=O)(=O)C1(c2cc(N3CCOCC3)nc(-c3cccc4[nH]c(C(N)=O)cc34)n2)CC1`, the IC50 in series [1] was 1.1 µM; in series [2] it was over 30 µM.

Compound `CC(C)(c1cc(N2CCOCC2)nc(-c2cccc3[nH]ccc23)n1)S(C)(=O)=O` returned an AUC in [3] of 0.76 µM·h. The IC50 came to 2.7 µM in series [4]; 1.6 µM in series [5]; 0.003 µM in [1]; 0.19 µM in series [7]; 0.28 µM in series [2]. This compound showed a solubility at 24 h in [6] of under 0.4 µM. The Papp A→B at 10 µM in series [8] came out at 16 ×10⁻⁶ cm/s. In [9], this compound registered a fraction unbound of 0.2. The compound further yielded a logD in “physchem” of 2.7. In “in vitro”, this compound had a hepatocyte CLint at 1 µM of 41 µL/min/1e6 cells.

`Cc1cc2c(-c3nc(N4CCOCC4)cc(C4(S(C)(=O)=O)CC4)n3)cccc2[nH]1`: the IC50 worked out at 0.028 µM in series [1] and 2.5 µM in series [2].

For `CS(=O)(=O)C1(c2cc(N3CCOCC3)nc(-c3cccc4[nH]ncc34)n2)CC1`, the IC50 came out at 0.13 µM in series [1] and 13 µM in [2].

Take `CS(=O)(=O)C1(c2cc(N3CCOCC3)nc(-c3cc(C#N)cc4[nH]ccc34)n2)CC1`: the IC50 in [2] was 1.5 µM.

For `Cn1ccc2c(-c3nc(CS(C)(=O)=O)cc(N4CCOCC4)n3)cccc21`, the IC50 in series [1] is 3.3 µM; in series [2], over 30 µM.

On to `CS(=O)(=O)C1(c2cc(N3CCOCC3)nc(-c3cccc4[nH]c(C#N)cc34)n2)CC1`, for which the IC50 was 0.3 µM in [1] and 7.2 µM in [2].

The compound `CS(=O)(=O)C1(c2cc(N3CCOCC3)nc(-c3cccc4[nH]ccc34)n2)CCOCC1` returned an AUC in [3] of 0.32 µM·h. Besides, the IC50 in [4] was 3.3 µM; in series [5], 1.4 µM; in series [1] it was 0.004 µM; in series [10] it was over 33 µM; in series [2], 0.18 µM. Also, the concentration in solution in series [6] (solubility at 24 h) came to 1.8 µM (≈ 0.797 µg/mL). Besides, in series [8], the Papp A→B at 10 µM was 28 ×10⁻⁶ cm/s. Further, the fraction unbound in series [9] is 0.25. Moreover, in the series “physchem”, the logD was determined as 2.4. This compound displayed a hepatocyte CLint at 1 µM in the series “in vitro” of 23 µL/min/1e6 cells.

In turn, `C[C@H]1COCCN1c1cc(C2(S(C)(=O)=O)CC2)nc(-c2cccc3[nH]ccc23)n1` registered a logD in “physchem” of 2.8.

Consider `O=S(=O)(c1ccccc1)C1(c2cc(N3CCOCC3)nc(-c3cccc4[nH]ccc34)n2)CC1`, for which the IC50 was 0.005 µM in series [1] and 0.59 µM in series [2].

`CS(=O)(=O)C1(c2cc(N3CCOCC3)nc(-c3cccc4[nH]ccc34)n2)CC1`: the clearance in series [11] stood at 15 mL/min/kg. The compound also registered an AUC in [3] of 3.1 µM·h. In addition, the IC50 in series [4] was determined as 3.2 µM; in [5], 0.94 µM. Also, the bioavailability in series [12] came to 70%. Further, the solubility at 24 h in [6] was determined as 4.4 µM (≈ 1.75 µg/mL). The Papp A→B at 10 µM in series [8] is 21 ×10⁻⁶ cm/s. Moreover, the fraction unbound in series [9] was found to be 0.23. Moreover, in the series “physchem”, the logD amounted to 2.2. The compound further registered a hepatocyte CLint at 1 µM in “in vitro” of under 3 µL/min/1e6 cells. The compound further came in with a Vd in [13] of 2.1 L/kg.

On to `C[C@@H]1COCCN1c1cc(C2(S(C)(=O)=O)CC2)nc(-c2cccc3[nH]ccc23)n1`, for which the Activity in series [14] and in series [18] was under 50% throughout. Moreover, in [15], the bioavailability was determined as 62%. The TGI entry in the series on LoVo [16] and in the series with LoVo [17] was “Active” throughout. Moreover, the Papp A→B at 10 µM in [8] was 23 ×10⁻⁶ cm/s. Besides, the logD in the series “physchem” worked out at 2.7.

`CS(=O)(=O)C1(c2cc(N3CCOCC3)nc(-c3cccc(N)c3)n2)CC1`: the IC50 in series [1] was 1.2 µM; in [2], over 30 µM.

On to `O=S(=O)(C1CCOCC1)C1(c2cc(N3CCOCC3)nc(-c3cccc4[nH]ccc34)n2)CC1`, for which the IC50 turned out to be 0.033 µM in series [1] and 2.8 µM in series [2].

Consider `CS(=O)(=O)C1(c2cc(N3CCOCC3)nc(-c3cc(C(N)=O)cc4[nH]ccc34)n2)CC1`, for which the IC50 came out at 0.041 µM in series [1] and 9.2 µM in [2].

With `O=S(=O)(C1CCNCC1)C1(c2cc(N3CCOCC3)nc(-c3cccc4[nH]ccc34)n2)CC1`, the IC50 in series [1] is 0.046 µM; in series [2], 2.9 µM.

With `Cc1ccc2[nH]ccc2c1-c1nc(N2CCOCC2)cc(C2(S(C)(=O)=O)CC2)n1`, the concentration in solution in series [19] (solubility) came to 96 µM (≈ 39.6 µg/mL). In series [2], this compound came in with an IC50 of over 30 µM.

Turning to `Cc1ccc(-c2nc(N3CCOCC3)cc(C3(S(C)(=O)=O)CC3)n2)c2cc[nH]c12`, the values for the IC50 in series [1] and in series [2] were 0.22 µM and 6.3 µM, respectively.

For `CN1CCC(c2cc(N3CCOCC3)nc(-c3cccc4[nH]ccc34)n2)(S(C)(=O)=O)CC1`, the IC50 amounted to 0.061 µM in series [1] and 3.7 µM in series [2]. The same compound returned a logD in “physchem” of 1.9.

With `CS(=O)(=O)Cc1cc(N2CCOCC2)nc(-c2cccc3[nH]ccc23)n1`, the IC50 in [4] is 5.9 µM; in series [5], 3.8 µM; in series [1], 0.03 µM; in [7] it was 0.33 µM; in series [2], 1.1 µM; in series [20], 2.7 µM. Moreover, the logD in “physchem” amounted to 1.7.

Turning to `CS(=O)(=O)Cc1cc(N2CCOCC2)nc(-c2cccc3cc[nH]c23)n1`, the IC50 in series [1] was 0.18 µM; in [2], over 30 µM.

In the case of `CS(=O)(=O)Cc1cc(N2CCOCC2)nc(-c2ccc3cc[nH]c3c2)n1`, the values for the IC50 in series [1] and in series [2] were 1.5 µM and over 30 µM, respectively.

`CC[C@@H]1COCCN1c1cc(C2(S(C)(=O)=O)CC2)nc(-c2cccc3[nH]ccc23)n1`: the results for the IC50 in series [1] and in series [2] were 0.17 µM and 4.4 µM, respectively. For the same compound, in “physchem”, the logD is 3.

With `Cc1c[nH]c2cccc(-c3nc(N4CCOCC4)cc(C4(S(C)(=O)=O)CC4)n3)c12`, the IC50 in series [1] is 14 µM; in series [2], over 30 µM.

Turning to `Cc1cc(-c2nc(N3CCOCC3)cc(C3(S(C)(=O)=O)CC3)n2)c2cc[nH]c2c1`, the results for the IC50 in series [1] and in [2] were 0.008 µM and 0.49 µM, respectively.

In the case of `CS(=O)(=O)C1(c2cc(N3CCOCC3)nc(-c3cccc4[nH]ccc34)n2)CCNCC1`, the AUC in series [3] came to 0.04 µM·h. The IC50 in series [4] is 1.5 µM; in series [5], 2.7 µM; in series [1], 0.009 µM; in [10], over 33 µM; in series [2], 0.42 µM. In series [6], the solubility at 24 h amounted to 230 µM (≈ 102 µg/mL). The Papp A→B at 10 µM in series [8] is 0.2 ×10⁻⁶ cm/s. This compound showed a fraction unbound in series [9] of 0.4. This compound also had a logD in the series “physchem” of 0.7. In addition, the pKa in [21] was 8.8. In the series “in vitro”, the hepatocyte CLint at 1 µM is 9.4 µL/min/1e6 cells.

`CS(=O)(=O)C1(c2cc(N3CCOCC3)nc(-c3ccccc3)n2)CC1`: the IC50 in series [1] is 0.36 µM; in [2] it was over 30 µM.
